In data set [1] the test system is Colo 205 (colon cancer) cell line. Put plainly: cells. It counts as cell-based. The method, then:
(§1) Anticancer activity: In vitro biological activity studies were carried out at the Advance Center for Treatment Research & Education in Cancer (ACTREC), Navi Mumbai.
(§2) The compounds were evaluated for in vitro anticancer activity against eight tumour cells lines derived from seven cancer types (non-small-cell lung, colon, oral, cervix, ovarian, prostate, and breast cancer) as shown in Table 2. For each compound, dose response curves for each cell line were measured at a minimum of five concentrations at 10 fold dilutions. A protocol of 48 h continuous drug exposure was used and a sulforhodamine B (SRB) protein assay was used to estimate cell viability or growth. The concentration causing 50% cell growth inhibition (GI50) and 50% cell death (LC50, −50% growth) compared with the control was calculated. Compounds 9a-9l have been evaluated for their in vitro cytotoxicity in eight cell lines from seven human cancer types of lung (Hop-62, A-549) colon (COLO-205) cervix (Si—Ha), ovary (A-2780), prostate (PC3) breast (MCF7), oral (KB). The results are expressed as percent of cell growth determined relative to that of untreated control cells (Table-8 and table-9).

The test system of data set [2] is A 549 (lung cancer) cell line. The data set is described as follows: cells. It is filed as cell-based. The note with it: for GI50: 48 h drug exposure, SRB, mean of three determinations, read-out: GI50 A 549. As for the experimental part: as §1, §2
Data set [3] relates to A 2780 (ovary cancer) cell line. Put plainly: cells. It is filed as cell-based. The note with it: for GI50: mean of three determinations. The method, then: as §1, §2
The subject of data set [4] is MCF 7 (breast cancer) cell line. Put plainly: cells. It is filed as cell-based. The note with it: for GI50: read-out: GI50 MCF 7. As for the experimental part: as §1, §2
Data set [5] has as its system PC 3 (prostate cancer) cell line. The data set is described as follows: cells. The note with it: for GI50: Homo sapiens, read-out: GI50 PC 3. It counts as cell-based. The method, then:
as §1, §2

In data set [6] the test system is HOP 62 (lung cancer) cell line. The data set is described as follows: cells. It is filed as cell-based. As for the experimental part:
as §1, §2

The subject of data set [7] is SiHa (cervix cancer) cell line. Put plainly: cells. It counts as cell-based. The note with it: for GI50: mean of three determinations. The method, then: as §1, §2
For data set [8], the system named is KB (oral cancer) cell line. The data set is described as follows: In vitro anticancer activity, SRB assay, KB. It is filed as cell-based, human. The note with it: 48 h drug exposure, SRB; for GI50: mean of three determinations, read-out: GI50 KB. As for the experimental part:
as §1, §2
Background: The SRB assay estimates cell density from bound dye.

The test system of data set [9] is duplex-form calf thymus DNA (CT-DNA). The data set is described as follows: Thermal denaturation studies with calf thymus DNA (DNA binding affinity). The note with it: [PBD]:[DNA] 1:5, CT-DNA 100 μM, ligand 20 μM, pH 7.00. As for the experimental part: Compounds have been subjected to thermal denaturation studies with duplex-form calf thymus DNA (CT-DNA) using an modification of a reported procedure (Newman, M. S. Carcinog-compr. Surv. 1976,1, 203; (b) Hecht, S. S.; Loy, M.; Hoffman, Carcinog-compr. Surv. 1976, 1, 325). Working solutions in aqueous buffer (10 mM NaH2PO4/Na2HPO4, 1 mM Na2EDTA, pH 7.00+0.01) containing CT-DNA (100 μm in phosphate) and the PBD (20 μm) have been prepared by addition of concentrated PBD solutions in DMSO to obtain a fixed [PBD]/[DNA] molar ratio of 1:5. The DNA-PBD solutions have been incubated at 37° C. for 0 and 18 h prior to analysis. Samples have been monitored at 260 using a Beckman DU-800 spectrophotometer fitted with high performance temperature controller, and heated at 1° C. min^−1 in the 40-110° C. range. DNA helix→coil transition temperatures (Tm) have been obtained from the maxima in the d(A260)/dT derivative plots. Drug-induced alterations in DNA melting behavior are given by: ΔTm=Tm(DNA+PBD)−Tm(DNA alone), where the Tm value for the PBD-free CT-DNA is 69.1±0.01.
The DNA binding activity for these novel C8-linked benzothiazole, benzoxazole-PBD hybrids has been examined by thermal denaturation studies using calf thymus (CT) DNA. […] The data for the compounds 9a-n is included in Table 7 for comparison.

[10] abbreviates: 48 h drug exposure, SRB, mean of three determinations.

Molecules are shown by their SMILES. Read-outs that look alike come from different tables or passages of the source.

This note sets out measurements from patent US8637665B2, “Pyrrolo[2,L-C][L,4]benzodiazepine-benzothiazole or benzoxazole conjugates linked through piperazine moiety and process for the preparation thereof” (priority 2010, dated 2014).

For orientation: GI50 means the concentration at which growth is held to half of that of the control. As for `COc1cccc2c1C(=O)c1c(O)c3c(c(O)c1C2=O)C[C@@](O)(C(=O)CO)C[C@@H]3O[C@H]1C[C@H](N)[C@H](O)[C@H](C)O1` [ADR, adriamycin, reference compound], the GI50 was 14700 nM in [1] (Homo sapiens, COLO 205; 48 h drug exposure, SRB; mean of three determinations; read-out: GI50 Colo 205); 13000 nM in [2] (Homo sapiens, A549); 2 nM in [3] (Homo sapiens, A2780, 48 h drug exposure, SRB, read-out: GI50 A 2780); less than 10 nM in [4] (Homo sapiens, MCF7, 48 h drug exposure, SRB, mean of three determinations); less than 10 nM in data set [5] (setting [10]); less than 10 nM in data set [6] (Homo sapiens, HOP-62; 48 h drug exposure, SRB; mean of three determinations; read-out: GI50 HOP 62). In addition, the GI50 in data set [7] (Homo sapiens, SiHa, 48 h drug exposure, SRB, read-out: GI50 SiHa) is 190 nM; in data set [8] (Homo sapiens, 48 h) it was 160 nM.
For orientation: CC50 means the concentration at which the toxic effect on the cells reaches its halfway point. Turning to `COc1cc2c(cc1OCCCCN1CCN(CCCCOc3ccc(-c4nc5ccccc5s4)cc3)CC1)N=C[C@@H]1CCCN1C2=O` [Compound 9e, 7-Methoxy-8-[4-(4-{4-[4(1,3-benzothiazol-2-yl)-phenoxy]butyl}piperazin-1-yl)butyl]oxy-(11aS)-1,2,3,11a-tetrahydro-5H-pyrrolo[2,1-c][1,4]benzodiazepin-5-one], the “ΔTm after incubation at 37° C. for 0 h” value in [9] worked out at 12.2 °C. Also, the “ΔTm after incubation at 37° C. for 18 h” value in data set [9] is 12.6 °C. Moreover, the CC50 in [1] (human, 48 h) is greater than 100000 nM; in data set [2] (human, 48 h), greater than 100000 nM; in [3] (human, 48 h), 2200 nM; in data set [4] (human, 48 h), 150 nM; in [5] (human, 48 h), 2500 nM; in [6] (human, 48 h), 27000 nM. Also, in data set [7] (human, 48 h), the CC50 came to 27800 nM. In addition, the GI50 is 120 nM in data set [1] (read-out: GI50 Colo 205; 48 h drug exposure, SRB; mean of three determinations); 105 nM in data set [2]; 97 nM in [3] (Homo sapiens, A2780, 48 h, read-out: GI50 A 2780, 48 h drug exposure, SRB); less than 10 nM in data set [4] (Homo sapiens, MCF7, 48 h); less than 10 nM in data set [5] (48 h); less than 10 nM in data set [6] (read-out: GI50 HOP 62; 48 h drug exposure, SRB; mean of three determinations). For the same compound, the GI50 in [7] (Homo sapiens, SiHa, 48 h, read-out: GI50 SiHa, 48 h drug exposure, SRB) was 107 nM; in data set [8], less than 10 nM. For the same compound, the “LC50 KB” value in data set [8] (50% cell death) was determined as 2300 nM.
For `COc1cc(-c2nc3ccccc3s2)ccc1OCCCCN1CCN(CCCCOc2cc3c(cc2OC)C(=O)N2CCC[C@H]2C=N3)CC1` [Compound 9m, 7-Methoxy-8-[4-(4-{4-[4(1,3-benzothiazol-2-yl)-2-methoxyphenoxy]butyl}piperazin-1-yl)butyl]oxy-(11aS)-1,2,3,11a-tetrahydro-5H-pyrrolo[2,1-c][1,4]benzodiazepin-5-one], in data set [9], the “ΔTm after incubation at 37° C. for 0 h” value was determined as 12.1 °C and the “ΔTm after incubation at 37° C. for 18 h” value worked out at 12.5 °C.
Consider `COc1cc2c(cc1OCCCCN1CCN(CCCCOc3cccc(-c4nc5ccccc5s4)c3)CC1)N=C[C@@H]1CCCN1C2=O` [Compound 9n, 7-Methoxy-8-[4-(4-{4-[3(1,3-benzothiazol-2-yl)-phenoxy]butyl}piperazin-1-yl)butyl]oxy-(11aS)-1,2,3,11a-tetrahydro-5H-pyrrolo[2,1-c][1,4]benzodiazepin-5-one], for which, in data set [9], the “ΔTm after incubation at 37° C. for 0 h” value was 10.3 °C and the “ΔTm after incubation at 37° C. for 18 h” value worked out at 10.6 °C.
Consider `COc1cc2c(cc1O)N=CC1CCCN1C2=O` (centres unmarked) [DC-81, reference compound], for which the “ΔTm after incubation at 37° C. for 0 h” value in [9] amounted to 0.3 °C. Also, the “ΔTm after incubation at 37° C. for 18 h” value in data set [9] amounted to 0.7 °C. Moreover, the GI50 in [1] (48 h drug exposure, SRB; mean of three determinations; read-out: GI50 Colo 205) was determined as 100 nM; in data set [3] (48 h drug exposure, SRB, read-out: GI50 A 2780), 130 nM; in data set [4] (setting [10]) it was 160 nM; in data set [6] (48 h drug exposure, SRB; mean of three determinations; read-out: GI50 HOP 62), 110 nM; in [7] (48 h drug exposure, SRB, read-out: GI50 SiHa) it was 160 nM; in data set [8] it was 170 nM.
